1 compound from US20220062299A1, “USE OF GLUCOCORTICOID STEROIDS IN PREVENTING AND TREATING CONDITIONS OF MUSCLE WASTING, AGING AND METABOLIC DISORDER” (NORTHWESTERN UNIVERSITY, priority 2018, published 2022) can be followed below.

In the series the test system is mdx mice. Put plainly: Dosing of metabolic and endocrine biomarkers in blood, serum and tissues, mdx mice, long-term (40 weeks) weekly prednisone. The format is in vivo. The method, then:
Animal handling and steroid regimens. Mice were housed in a pathogen-free dedicated vivarium in accordance with Institutional Animal Care and Use Committee (IACUC) guidelines. Euthanasia was performed through carbon dioxide inhalation followed by cervical dislocation and heart removal. All methods using living animals in this study were performed in ethical accordance with the American Veterinary Medical Association (AVMA) and under protocols fully approved by both the Institutional Animal Care and Use Committee (IACUC) at Northwestern University Feinberg School of Medicine (protocol number ISO00000761). Consistent with the ethical approvals, all efforts were made to minimize suffering. Mice were fed ad libitum with Mouse Breeder Sterilizable Diet (#7904; Harlan Teklad, Indianapolis, Ind.) and maintained on a 12-hour light/dark cycle. mdx mice from the DBA/2J background were obtained from the Jackson Laboratory (Bar Harbor, Me.; stock #013141) and interbred. Male mice were used for reported experiments. Age at start was approximately 6 months for short-term experiments, approximately 6 weeks for long-term experiments. Dysferlin-null (Dysf-null) mice from the 129T2/SvEmsJ background were previously characterized (Demonbreun et al., 2011; Demonbreun et al., 2014). Age at start was approximately 9 months for long-term experiments. For experiments with Dysf-null and wildtype mice, both females and males (approximately 1:1 ratio) were randomized in treatment groups. […] Dosing was based on weekly weight measurements (1 mg/kg body weight, (Sali et al., 2012)) in 100 μl total PBS volume per dose. Mice were injected daily via intraperitoneal injection at 7 AM. On injection days, stock solutions stored at −20° C. were diluted into sterile Eppendorf tubes containing sterile phosphate buffered saline (PBS) (#14190; Thermo Fisher, Waltham, Mass.). Puromycin (cat #A1113803, Thermo Scientific, Waltham, Mass.) was administered i.p. as 0.040 μmol/body g, and tissues were snap-frozen 30 minutes after injection. Sterile BD Micro-Fine IV Insulin Syringes (#14-829-1A; Fisher Scientific, Waltham, Mass.) were used to inject the intraperitoneal cavity of non-sedated animals. All animal analyses both during treatment and at endpoint were conducted blinded to treatment groups.
Dosing of metabolic and endocrine biomarkers. Glycogen was quantitated using the Glycogen Assay Kit (#ab65620; Abcam, Cambridge, Mass.) from approximately 25 mg frozen-pulverized whole tissue, following manufacturer's instructions and internal standards for calculating μg/mg values. For measurement of whole-tissue ATP/NAD^+ levels, approximately 25 mg frozen-pulverized tissue was extracted in 10% perchloric acid and neutralized in 0.75 M K2CO3, as previously described (Ramsey et al., 2009). NAD+ and ATP were measured by high-pressure liquid chromatography (HPLC) with Shimadzu LC-20A pump (Shimadzu Scientific Instr Inc, Addison, Ill.) and UV-VIS detector, using a Supelco LC-18-T column (15 cm×[…]; #58970-U; Millipore-Sigma, St Louis, Mo.). […] ATP and NAD^+ eluted as sharp peaks at 3 and 14 minutes, respectively, and were normalized to tissue weight of frozen liver tissue for calculating pmol/mg values. Corticosterone was measured in mouse serum and cortisol was measured in human serum using dedicated ELISA kits (#ADI-900-097, Enzo Life Science, Farmingdale, N.Y.; #K7430-100, BioVision, Milpitas, Calif.) according to manufacturer's instructions and internal standards to calculate ng/ml values. Insulin levels were quantitated in mouse and human serum with species-specific ELISA kits (#10-1247-01 (mouse-specific); #10-1113-01 (human-specific); Mercodia, Uppsala, Sweden), following manufacturer's instructions and internal standards to calculate ng/ml values. Free fatty acids were quantitated using Enzychrom Free Fatty Acid Assay kit (#EFFA-100; BioAssay Systems, Hayward, Calif.), following kit's instructions and standards to calculate μM (serum) and nmol/mg (tissue) values.

Turning to `C[C@]12C=CC(=O)C=C1CC[C@@H]1[C@@H]2C(=O)C[C@@]2(C)[C@H]1CC[C@]2(O)C(=O)CO` [prednisone, Prednisone], the blood glucose entry was “no change”. Also, under “mean ± s.e.m”, the “serum BCAA” value is 462 ± 7.32 µM, the serum corticosterone turned out to be 133 ± 8.36 ng/mL, the serum creatine kinase is listed as 3.1 ± 0.16 U/ml and the “serum free fatty acids” value was 547 ± 10.4 µM. Besides, where the note is “mean ± s.e.m”, the serum insulin was determined as 1.51 ± 0.14 ng/mL; the “serum β-hydroxybutyrate” value was found to be 372 ± 5 µM; the “tissue BCAA, diaphragm” value came to 49.4 ± 2.14 nmol/mg; the “tissue BCAA, heart” value was 1.74 ± 0.08 nmol/mg. Further, under “mean ± s.e.m”, the “tissue BCAA, omental fat” value was 23.5 ± 0.43 nmol/mg; the “tissue BCAA, quadriceps” value is 95.3 ± 3.21 nmol/mg; the “tissue free fatty acids, heart” value worked out at 0.211 ± 0.01 nmol/mg; the “tissue free fatty acids, omental fat” value stood at 3.91 ± 0.12 nmol/mg. Under “mean ± s.e.m”, the “tissue free fatty acids, quadriceps” value is on record as 0.752 ± 0.05 nmol/mg; the “tissue β-hydroxybutyrate, diaphragm” value worked out at 12.9 ± 0.89 nmol/mg; the “tissue β-hydroxybutyrate, heart” value worked out at 20.2 ± 0.51 nmol/mg; the “tissue β-hydroxybutyrate, omental fat” value was found to be 23 ± 1.71 nmol/mg. Further, the “tissue β-hydroxybutyrate, quadriceps” value (mean ± s.e.m) worked out at 24.7 ± 1.58 nmol/mg.
